Reference: patent US6825172B2, “3-descladinosyl-6-O-carbamoyl and 6-O-carbonoyl macrolide antibacterial agents” (Janssen Pharmaceutica, NV, priority 2002, dated 2004)
Values after ≈ are worked out from the molar mass of the structure shown.

Key:
Experiment in all cases: MIC, microdilution broth method (NCCLS)
Format in all cases: cell-based
S. pneumoniae ATCC49619 = conditions: Streptococcus pneumoniae, Table 2, 3,6-Dicarbamoyl Macrolide Derivatives, read-out: MIC Values, D: S. pneumoniae ATCC49619
Summary of the method: (§1)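 NCCLS M7-A4 broth microdilution: two-fold drug dilutions in cation-adjusted Mueller-Hinton broth, inoculum approximately 5×10^4 CFU/well. Trays incubated at 35 °C for 16-20 hours. MIC read by comparing growth to compound-free growth controls.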

E. faecalis ATCC29212 = conditions: Enterococcus faecalis, Table 2, 3,6-Dicarbamoyl Macrolide Derivatives, read-out: MIC Values, C: E. faecalis ATCC29212
Summary of the method: as §1

H. influenzae ATCC49247 = conditions: Haemophilus influenzae, Table 2, 3,6-Dicarbamoyl Macrolide Derivatives, read-out: MIC Values, E: H. influenzae ATCC49247
Summary of the method: as §1

S. aureus ATCC29213 = conditions: Staphylococcus aureus, Table 2, 3,6-Dicarbamoyl Macrolide Derivatives, read-out: MIC Values, B: S. aureus ATCC29213
Summary of the method: as §1

E. coli OC2605 = conditions: Escherichia coli, Table 2, 3,6-Dicarbamoyl Macrolide Derivatives, read-out: MIC Values, A: E. coil OC2605
Summary of the method: as §1

| MIC (S. pneumoniae ATCC49619) | MIC (E. faecalis ATCC29212) | MIC (H. influenzae ATCC49247) | MIC (S. aureus ATCC29213) | MIC (E. coli OC2605) | Compound |
| --- | --- | --- | --- | --- | --- |
| 0.06 µg/mL (≈ 0.06 µM) | 0.5 µg/mL (≈ 0.5 µM) | 8 µg/mL (≈ 8 µM) | 1 µg/mL (≈ 1 µM) | > 16 µg/mL | CC[C@H]1OC(=O)[C@H](C)[C@@H](OC(=O)N(CC)Cc2cccnc2)[C@H](C)[C@@H](O[C@@H]2O[C@H](C)C[C@H](N(C)C)[C@H]2O)[C@](C)(OC(=O)NC/C=C/c2ccc(-c3ncccn3)cc2)C[C@@H](C)C(=O)[C@H](C)[C@H]2NC(=O)O[C@@]21C [Compound 61] |
| 0.06 µg/mL (≈ 0.0642 µM) | 0.5 µg/mL (≈ 0.535 µM) | 4 µg/mL (≈ 4.28 µM) | 0.5 µg/mL (≈ 0.535 µM) | > 16 µg/mL | CC[C@H]1OC(=O)[C@H](C)[C@@H](OC(=O)N2CCCC2)[C@H](C)[C@@H](O[C@@H]2O[C@H](C)C[C@H](N(C)C)[C@H]2O)[C@](C)(OC(=O)NC/C=C/c2ccc(-c3ncccn3)cc2)C[C@@H](C)C(=O)[C@H](C)[C@H]2NC(=O)O[C@@]21C [Compound 62] |
| 0.06 µg/mL (≈ 0.0631 µM) | 0.5 µg/mL (≈ 0.526 µM) | 4 µg/mL (≈ 4.21 µM) | 0.5 µg/mL (≈ 0.526 µM) | > 16 µg/mL | CC[C@H]1OC(=O)[C@H](C)[C@@H](OC(=O)N2CCOCC2)[C@H](C)[C@@H](O[C@@H]2O[C@H](C)C[C@H](N(C)C)[C@H]2O)[C@](C)(OC(=O)NC/C=C/c2ccc(-c3ncccn3)cc2)C[C@@H](C)C(=O)[C@H](C)[C@H]2NC(=O)O[C@@]21C [Compound 63] |
| 0.06 µg/mL (≈ 0.0632 µM) | 0.5 µg/mL (≈ 0.527 µM) | 8 µg/mL (≈ 8.43 µM) | 1 µg/mL (≈ 1.05 µM) | > 16 µg/mL | CC[C@H]1OC(=O)[C@H](C)[C@@H](OC(=O)N2CCCCC2)[C@H](C)[C@@H](O[C@@H]2O[C@H](C)C[C@H](N(C)C)[C@H]2O)[C@](C)(OC(=O)NC/C=C/c2ccc(-c3ncccn3)cc2)C[C@@H](C)C(=O)[C@H](C)[C@H]2NC(=O)O[C@@]21C [Compound 64] |
| 0.25 µg/mL (≈ 0.254 µM) | 1 µg/mL (≈ 1.01 µM) | 8 µg/mL (≈ 8.11 µM) | 1 µg/mL (≈ 1.01 µM) | > 16 µg/mL | CC[C@H]1OC(=O)[C@H](C)[C@@H](OC(=O)N(CC)c2cccnc2)[C@H](C)[C@@H](O[C@@H]2O[C@H](C)C[C@H](N(C)C)[C@H]2O)[C@](C)(OC(=O)NC/C=C/c2ccc(-c3ncccn3)cc2)C[C@@H](C)C(=O)[C@H](C)[C@H]2NC(=O)O[C@@]21C [Compound 65] |
| 0.25 µg/mL (≈ 0.262 µM) | 2 µg/mL (≈ 2.1 µM) | 16 µg/mL (≈ 16.8 µM) | 4 µg/mL (≈ 4.2 µM) | > 16 µg/mL | CC[C@H]1OC(=O)[C@H](C)[C@@H](OC(=O)N(CC)CCO)[C@H](C)[C@@H](O[C@@H]2O[C@H](C)C[C@H](N(C)C)[C@H]2O)[C@](C)(OC(=O)NC/C=C/c2ccc(-c3ncccn3)cc2)C[C@@H](C)C(=O)[C@H](C)[C@H]2NC(=O)O[C@@]21C [Compound 66] |
| 0.06 µg/mL (≈ 0.061 µM) | 0.5 µg/mL (≈ 0.508 µM) | 8 µg/mL (≈ 8.13 µM) | 0.5 µg/mL (≈ 0.508 µM) | > 16 µg/mL | CC[C@H]1OC(=O)[C@H](C)[C@@H](OC(=O)N2Cc3cccnc3C2)[C@H](C)[C@@H](O[C@@H]2O[C@H](C)C[C@H](N(C)C)[C@H]2O)[C@](C)(OC(=O)NC/C=C/c2ccc(-c3ncccn3)cc2)C[C@@H](C)C(=O)[C@H](C)[C@H]2NC(=O)O[C@@]21C [Compound 67] |
